Our source for the GI50 and TGI values is PubChem BioAssay (NCI).

Some test systems named below: 786-0 renal; ACHN renal; HL-60(TB) leukemia; M14 melanoma; MOLT-4 leukemia; NCI-H23 lung; OVCAR-4 ovarian; SK-OV-3 ovarian; A498 renal; RXF 393 renal.
Common to all, as to assay: NCI-60 cell line screen, 48 h

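Values below derive from 48-hour exposures of cells grown in 96-well plates, with endpoints linearly interpolated between the two concentrations bracketing the appropriate inhibition level. Abbreviation: GI50, concentration required for 50% inhibition of growth. The concentration for full growth arrest is given as TGI.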 Bounds are passed on as bounds.

As for `Cc1c2c(nn1-c1ccc(S(=O)(=O)NC(=S)NC(=O)c3ccccc3)cc1)-c1ccccc1CC2`, the GI50 is over 100 µM with 786-0 renal; 41 µM in the assay on ACHN renal; 3.85 µM with HL-60(TB) leukemia; over 100 µM in the assay on M14 melanoma; over 100 µM with MOLT-4 leukemia; 53.9 µM in the assay on NCI-H23 lung. Also, the GI50 in the assay on OVCAR-4 ovarian and in the assay with SK-OV-3 ovarian was over 100 µM each time. Also, the TGI in the assay on 786-0 renal, in the assay with ACHN renal, with HL-60(TB) leukemia, in the assay on M14 melanoma, in the assay on MOLT-4 leukemia and in the assay with NCI-H23 lung was over 100 µM in each case. The TGI in the assay with OVCAR-4 ovarian and with SK-OV-3 ovarian was over 100 µM each time.

Turning to `CC(=O)OCCCC#CC#Cc1cccc(=O)o1`, the GI50 is 19 µM with 786-0 renal; 23.9 µM with A498 renal; 19.2 µM with ACHN renal; 17.8 µM in the assay with M14 melanoma; 6.59 µM with MOLT-4 leukemia; 15.8 µM with NCI-H23 lung. The figures for the GI50 in the assay with OVCAR-4 ovarian, in the assay on RXF 393 renal and with SK-OV-3 ovarian were 24.9 µM, 24.3 µM and 33.8 µM, respectively. Also, the TGI was 35.1 µM with 786-0 renal; 39.4 µM in the assay on A498 renal; 35 µM in the assay on ACHN renal; 36.5 µM in the assay with M14 melanoma; over 100 µM in the assay with MOLT-4 leukemia; 33 µM with NCI-H23 lung. Besides, the TGI was 56.1 µM with OVCAR-4 ovarian, 43.8 µM in the assay with RXF 393 renal and over 100 µM with SK-OV-3 ovarian.

For the compound `O=c1cccc2n1CC1CNC[C@H]2C1`, the TGI in the assay with 786-0 renal, with ACHN renal, in the assay on M14 melanoma, in the assay with MOLT-4 leukemia, with NCI-H23 lung and with OVCAR-4 ovarian was over 100 µM throughout. Besides, the TGI in the assay on RXF 393 renal and in the assay with SK-OV-3 ovarian was over 100 µM each time.

`O=C(O)c1c2c(cc3c(=O)cc(-c4ccccc4)oc13)CCCC2`: the TGI with 786-0 renal, in the assay with A498 renal, with ACHN renal, in the assay on M14 melanoma, with MOLT-4 leukemia and in the assay with NCI-H23 lung was over 100 µM each time. In addition, the TGI in the assay on OVCAR-4 ovarian and in the assay on SK-OV-3 ovarian was over 100 µM in each case.

As for `NC(N)=N/N=C/c1c(-c2cccnc2)nc2sc(Cl)cn12`, the GI50 in the assay with 786-0 renal was 17 µM; in the assay on A498 renal it was 20.6 µM; in the assay with ACHN renal it was 10.3 µM; with M14 melanoma, 16.5 µM; in the assay with MOLT-4 leukemia, 13.6 µM; with NCI-H23 lung, 16.1 µM. Further, the GI50 in the assay with RXF 393 renal was 17.2 µM. The TGI is 46.6 µM in the assay on 786-0 renal; 37.6 µM with A498 renal; 21.9 µM in the assay with ACHN renal; 30.1 µM with M14 melanoma; 31.6 µM in the assay on MOLT-4 leukemia; 31.7 µM with NCI-H23 lung. The TGI in the assay on RXF 393 renal was determined as 36.7 µM.

As to `Cc1ccsc1-c1ccc2c(c1)COC2(CCCN(C)C)c1ccc(F)cc1` (centres undefined), the GI50 in the assay with 786-0 renal was 2.54 µM; in the assay on ACHN renal, 3.48 µM; in the assay on HL-60(TB) leukemia, 1.93 µM; in the assay on M14 melanoma it was 1.73 µM; in the assay on MOLT-4 leukemia, 2.7 µM; in the assay with NCI-H23 lung, 5.39 µM. Besides, the results for the GI50 in the assay with OVCAR-4 ovarian, in the assay with RXF 393 renal and with SK-OV-3 ovarian were 3.27 µM, 2.76 µM and 8.16 µM, respectively. Also, the TGI turned out to be 7.97 µM with 786-0 renal; 13.3 µM with ACHN renal; 4.59 µM with HL-60(TB) leukemia; 3.46 µM with M14 melanoma; 8.43 µM in the assay with MOLT-4 leukemia; 18.1 µM in the assay on NCI-H23 lung. Further, the TGI came out at 13 µM in the assay with OVCAR-4 ovarian, 9.44 µM in the assay with RXF 393 renal and 21.9 µM in the assay on SK-OV-3 ovarian.

Take `Cc1ccc(C(=O)NCCN(C)C)c2nc3ccccc3cc12`: the TGI in the assay on 786-0 renal was over 100 µM; with ACHN renal, 10.3 µM; in the assay on HL-60(TB) leukemia, over 100 µM; with M14 melanoma, over 100 µM; in the assay on MOLT-4 leukemia, over 100 µM; in the assay on OVCAR-4 ovarian, over 100 µM. Moreover, the values for the TGI in the assay with RXF 393 renal and in the assay with SK-OV-3 ovarian were 3.29 µM and over 100 µM, respectively.

Turning to `COC12OCCN(C)C1=CC(=O)C1(C)N=NCC12` (centres undefined), the TGI in the assay on 786-0 renal, with A498 renal, in the assay on ACHN renal, in the assay on M14 melanoma, with MOLT-4 leukemia and in the assay with NCI-H23 lung was over 100 µM each time. Moreover, the TGI in the assay with RXF 393 renal and in the assay on SK-OV-3 ovarian was over 100 µM each time.

For the compound `O=C1c2cc(F)ccc2-c2c1c1ccc([N+](=O)[O-])cc1c(=O)n2CCCBr`, the GI50 was 1.96 µM in the assay with 786-0 renal; 3.91 µM in the assay with ACHN renal; 13.3 µM in the assay on M14 melanoma; 2.8 µM in the assay on MOLT-4 leukemia; 18.4 µM in the assay on NCI-H23 lung; over 100 µM in the assay on OVCAR-4 ovarian. Moreover, the GI50 in the assay on SK-OV-3 ovarian was 20.2 µM. Further, the TGI with 786-0 renal was 9.31 µM; in the assay on ACHN renal it was over 100 µM; in the assay on M14 melanoma, 46.3 µM; in the assay with MOLT-4 leukemia, 14.2 µM; in the assay on NCI-H23 lung, 85.4 µM; with OVCAR-4 ovarian, over 100 µM. This compound came in with a TGI in the assay on SK-OV-3 ovarian of over 100 µM.

With `Cc1ccc(S(=O)(=O)OCCOCCOCCOCCOCCOS(=O)(=O)c2ccc(C)cc2)cc1`, the TGI in the assay on 786-0 renal was over 100 µM; with A498 renal, over 100 µM; in the assay on ACHN renal, over 100 µM; with M14 melanoma, over 100 µM; with MOLT-4 leukemia it was 41.4 µM; with NCI-H23 lung it was over 100 µM. Moreover, the TGI in the assay with OVCAR-4 ovarian, in the assay on RXF 393 renal and with SK-OV-3 ovarian was over 100 µM each time.

`CN(C)CCNC(=O)c1ccc2oc3cc4ccccc4c(=O)n3c2c1`: the GI50 in the assay on 786-0 renal is 71.6 µM; in the assay on ACHN renal it was 15.1 µM; in the assay with HL-60(TB) leukemia, 30.4 µM; in the assay with M14 melanoma it was 52 µM; with MOLT-4 leukemia it was 64.2 µM; in the assay with NCI-H23 lung, 17.4 µM. The GI50 is 7.6 µM in the assay with OVCAR-4 ovarian, 23.8 µM with RXF 393 renal and 63.8 µM in the assay with SK-OV-3 ovarian. Also, the TGI is over 100 µM with 786-0 renal; 37.6 µM in the assay with ACHN renal; over 100 µM in the assay with HL-60(TB) leukemia; over 100 µM in the assay on M14 melanoma; over 100 µM with MOLT-4 leukemia; 57.8 µM in the assay on NCI-H23 lung. Moreover, the TGI is over 100 µM in the assay on OVCAR-4 ovarian, 70.4 µM in the assay with RXF 393 renal and over 100 µM with SK-OV-3 ovarian.
